Activity calls are given as the source filed them.
Tests used:
H9c2 = experiment: cells; type: functional, cell-based; settings: Rattus norvegicus, H9c2, Myocardium;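 further: confirmatory concentration-response retest of ultra-high-throughput screening hits for modulation of myocardial damage; cell death induced by hydrogen peroxide oxidative stress; compound pretreatment for 60 min then peroxide exposure for 2 h; potency is for protecting the cells against peroxide damage rather than for killing them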
[1] = biological target: FAD-linked sulfhydryl oxidase ALR (Homo sapiens, UniProt P55789); experiment: ALR-catalysed DTT oxidation blockers – biochemical, H2O2 detection, luminescence, cherry-pick, dose response (AID 493248)
FAD-linked sulfhydryl oxidase ALR, sequence (P55789 whole entry): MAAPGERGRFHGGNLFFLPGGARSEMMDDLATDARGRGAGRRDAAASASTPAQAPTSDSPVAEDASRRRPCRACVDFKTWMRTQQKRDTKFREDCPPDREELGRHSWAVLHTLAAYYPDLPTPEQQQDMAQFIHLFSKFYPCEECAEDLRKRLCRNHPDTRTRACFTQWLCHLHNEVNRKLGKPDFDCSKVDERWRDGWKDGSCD

[2] = Luminescence Cell-Based Dose Response HTS to Identify Activators of Luciferase Translation or Activity in H4 […] Cells. [Related pubchem assays: 1829 (Project Summary), 1814 (Primary HTS)]; type: functional
[3] = Luminescence Cell-Based Dose Confirmation HTS to Identify Activators of 5'UTR Stem-Loop Driven Alpha-Synuclein mRNA Translation in H4 Neuroglioblastoma Cells. [Related pubchem assays: 1829 (Project Summary), 1814 (Primary HTS)]; type: functional
[4] = viability of uninfected HEp-2 cells – cell-based, HTS, cytotoxicity control for RSV inhibitor project, dose response (AID 2410); type: functional; settings: human respiratory syncytial virus
H4 = experiment: Luminescence Cell-Based Dose Response HTS to Identify Activators of 5'UTR Stem-Loop Driven Prion Protein mRNA Translation in H4 Neuroglioblastoma Cells. [Related pubchem assays: 1829 (Project Summary), 1814 (Primary HTS)]; type: functional; settings: Homo sapiens
[5] = biological target: T1, Rac GTPase-activating protein 1 (Homo sapiens, UniProt Q9H0H5); experiment: blockers of MgcRacGAP-driven Rac1 GTP hydrolysis – biochemical, ADP Hunter fluorescence, primary and confirmatory, confirmation (AID 624330); type: functional
T1 sequence (Q9H0H5 whole entry): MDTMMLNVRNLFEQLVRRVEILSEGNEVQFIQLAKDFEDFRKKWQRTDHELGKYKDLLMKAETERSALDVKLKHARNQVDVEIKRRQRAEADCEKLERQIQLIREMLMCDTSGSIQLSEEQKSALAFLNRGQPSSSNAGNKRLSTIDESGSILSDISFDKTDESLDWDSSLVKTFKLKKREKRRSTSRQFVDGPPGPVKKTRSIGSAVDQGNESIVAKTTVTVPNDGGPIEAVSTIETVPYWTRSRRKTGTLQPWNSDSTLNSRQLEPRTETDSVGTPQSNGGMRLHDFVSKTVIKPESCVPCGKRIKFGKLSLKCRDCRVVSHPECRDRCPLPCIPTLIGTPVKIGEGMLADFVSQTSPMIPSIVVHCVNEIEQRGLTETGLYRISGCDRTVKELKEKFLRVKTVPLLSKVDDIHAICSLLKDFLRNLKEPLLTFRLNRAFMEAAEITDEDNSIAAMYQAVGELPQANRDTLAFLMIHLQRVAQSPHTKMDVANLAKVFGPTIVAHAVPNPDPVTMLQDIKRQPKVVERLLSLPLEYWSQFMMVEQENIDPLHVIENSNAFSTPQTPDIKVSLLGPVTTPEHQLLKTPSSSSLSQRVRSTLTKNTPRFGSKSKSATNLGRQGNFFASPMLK

Paired box protein Pax-8 = Paired box protein Pax-8 (Homo sapiens, UniProt Q06710); experiment: PAX8 transcriptional activity inhibition in RMG-I – RMG-I cells, luciferase, cherry-pick, dose response (AID 687027); type: functional, cell-based;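 further: luciferase reporter driven by Pax8 target thyroperoxidase promoter measured by SteadyGlo luminescence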
Paired box protein Pax-8, sequence (Q06710 whole entry): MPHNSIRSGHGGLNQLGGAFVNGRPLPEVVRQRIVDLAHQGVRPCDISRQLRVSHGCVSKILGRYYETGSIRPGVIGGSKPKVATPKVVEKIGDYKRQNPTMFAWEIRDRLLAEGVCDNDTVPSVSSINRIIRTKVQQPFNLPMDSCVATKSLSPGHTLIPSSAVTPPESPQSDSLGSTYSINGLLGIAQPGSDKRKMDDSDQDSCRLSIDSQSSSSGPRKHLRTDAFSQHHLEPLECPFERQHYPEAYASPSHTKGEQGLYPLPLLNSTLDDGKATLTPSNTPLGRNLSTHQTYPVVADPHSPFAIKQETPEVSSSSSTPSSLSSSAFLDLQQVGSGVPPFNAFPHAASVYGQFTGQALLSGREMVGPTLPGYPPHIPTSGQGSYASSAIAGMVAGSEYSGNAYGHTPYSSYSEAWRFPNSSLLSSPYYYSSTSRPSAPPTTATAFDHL

[6] = reduction of Shn3 3'UTR-driven luciferase in osteoblasts – cell-based, Clone20 osteoblasts, firefly luciferase, cherry-picked, dose response (AID 624132); type: functional;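 further: firefly luciferase luminescence from reporter carrying the Shn3 3'UTR in osteoblasts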
[7] = non-specific 3'UTR reporter inhibition in Clone20-Shn3RL – cell-based, Renilla luciferase, cherry-picked, counter-screen for Shn3 inhibitor project, dose response (AID 624133); type: functional
[8] = biological target: T2, Zinc finger protein mex-5 (Caenorhabditis elegans, UniProt Q9XUB2); experiment: potency of MEX-5 RNA-binding blockers – biochemical, C. elegans, fluorescence polarization, dose response (AID 1960)
T2 sequence (Q9XUB2 whole entry): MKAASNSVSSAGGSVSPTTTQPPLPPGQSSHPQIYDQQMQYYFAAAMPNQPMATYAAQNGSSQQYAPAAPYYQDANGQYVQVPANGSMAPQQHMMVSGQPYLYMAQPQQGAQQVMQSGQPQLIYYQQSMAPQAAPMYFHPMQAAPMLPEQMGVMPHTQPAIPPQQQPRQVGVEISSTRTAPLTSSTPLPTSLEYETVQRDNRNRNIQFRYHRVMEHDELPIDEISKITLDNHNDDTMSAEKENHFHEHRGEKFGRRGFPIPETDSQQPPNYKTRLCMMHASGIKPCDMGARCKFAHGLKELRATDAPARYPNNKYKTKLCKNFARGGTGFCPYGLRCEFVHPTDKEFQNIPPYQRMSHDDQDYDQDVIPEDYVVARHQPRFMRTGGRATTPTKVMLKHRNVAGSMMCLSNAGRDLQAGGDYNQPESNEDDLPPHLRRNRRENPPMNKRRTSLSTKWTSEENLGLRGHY

[9] = biological target: T3, RNA-binding protein pos-1 (Caenorhabditis elegans, UniProt G5EF15); experiment: disruptors of C. elegans POS-1 RNA interaction – biochemical, fluorescence polarization, dose response (AID 1964);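 further: purified POS-1 fused to maltose binding protein made in E. coli; potency of compounds blocking POS-1 binding to fluorescent RNA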
T3 sequence (G5EF15 whole entry): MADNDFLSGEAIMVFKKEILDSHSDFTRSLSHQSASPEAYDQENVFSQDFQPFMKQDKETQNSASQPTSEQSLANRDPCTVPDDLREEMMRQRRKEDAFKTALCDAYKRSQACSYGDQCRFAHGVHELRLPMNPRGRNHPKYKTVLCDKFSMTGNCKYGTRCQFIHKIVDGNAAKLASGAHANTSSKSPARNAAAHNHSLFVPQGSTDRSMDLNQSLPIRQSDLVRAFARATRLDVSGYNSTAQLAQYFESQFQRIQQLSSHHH

[10] = NIH3T3 cell viability loss – ATP luminescence, mouse fibroblasts, counter-screen, dose response (AID 2010); type: functional, cell-based;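 further: cells exposed to compound for about 90 hours before reading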
[11] = Trypanosoma cruzi growth suppression in host cells – NIH3T3 host cells, beta-gal luminescence, confirmation (AID 2044); type: functional, cell-based;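 further: intracellular parasites grown in NIH/3T3 mouse fibroblasts as host cells; luminescent beta-galactosidase reporter signal from transgenic T. cruzi replicating inside host cells; inhibitors lower the luminescence signal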
INS1 = experiment: INS-1E survival protection against cytokine death – cell-based, luminescence, retest, dose response (AID 449756); type: functional; settings: Rattus norvegicus;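 further: cell death triggered by IL-1 beta plus TNF-alpha plus IFN-gamma mixture; protective hits raise ATP signal compared with cytokine alone wells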

COc1cc2nc(O)n3nc(-c4ccccc4)nc3c2cc1OC
IC50 (H9c2): > 79 µM (inactive)

COc1cccc(/C=N/NC(=O)NC2CCCCC2)c1O
AC50 [1]: 3.71 µM (active)

COc1cc(OC)cc(C(=O)N2CCN=C2SCc2cccnc2)c1
AC50 [1]: 0.154 µM (active)

CCN(CC(=O)Nc1ccc(OC)cc1)C(=O)CCc1nc(O)c2ccccc2n1
IC50 (H9c2): > 79 µM (inactive)

COc1cc2c(C#CCCCO)c(-c3ccsc3)oc(=O)c2cc1OC
IC50 (H9c2): > 79 µM (inactive)

CN1C/C(=C\c2ccc(N3CCOCC3)cc2)C(=O)/C(=C/c2ccc(N3CCOCC3)cc2)C1
EC50 [2]: 48.1 µM (active) | EC50 [3]: 23.7 µM (active) | CC50 [4]: 22.8 µM (active) | EC50 (H4): > 120 µM (not active)

CN(CC(=O)NCc1ccccc1)Cc1cccc(F)c1
IC50 [5]: 67 µM (active)

COc1cc(-c2ccc(N)c(OC)c2)ccc1N
IC50 [5]: 9 µM (active)

Cc1ccc(S(=O)(=O)c2nc(S(=O)(=O)c3ccccc3)sc2N2CCN(C)CC2)cc1
AC50 (Paired box protein Pax-8): 7.56 µM (active)

Cc1nc2c(c(=O)n1CCC1=CCCCC1)c1nc3ccccc3nc1n2/N=C/c1ccccc1
IC50 (H9c2): > 79 µM (inactive)

COc1cccc(-c2cnc3c(NC=O)cc(-c4cccc(NC(C)=O)c4)cn23)c1
IC50 (H9c2): > 79 µM (inactive)

CCCCCCn1c(C)nc2c(c1=O)c1nc3ccccc3nc1n2/N=C/c1ccco1
IC50 (H9c2): 23.3 µM (active)

CCOc1cc(/C=C(\C#N)C(=O)NCc2cccnc2)ccc1O
IC50 [5]: 42.4 µM (active)

Cc1cc(NC(=O)COC(=O)COc2ccc3c4c(c(=O)oc3c2)CCC4)no1
IC50 (H9c2): 13.1 µM (active)

C[C@@H]1CN([C@@H](C)CO)C(=O)c2cc(NC(=O)Nc3ccc(C(F)(F)F)cc3)ccc2O[C@@H](C)CCCCO[C@H]1CN(C)Cc1ccc(Cl)c(Cl)c1
AC50 (Paired box protein Pax-8): 9.66 µM (active)

CC(=O)N1c2ccc(S(=O)(=O)N3CCC(C(=O)N4CCN(c5cc(Cl)ccc5C)CC4)CC3)cc2CC1C (centres undefined)
AC50 [6]: 3.1 µM (active) | AC50 [7]: 6.67 µM (active)

Cc1ccc(NC(=O)CCC(=O)N/N=C/c2ccc(O)cc2)cc1
IC50 [5]: 51.4 µM (active)

COc1cc2ncnc(N[C@H](C)c3ccccc3)c2cc1OC
AC50 [6]: 8.72 µM (active) | AC50 [7]: 22.7 µM (active)

O=C1COc2ccc(-c3nnc(O)c4ccccc34)cc2N1
IC50 (H9c2): 5.26 µM (active)

CSc1ccc(CN2CCN(Cc3ccccc3Cl)CC2)cc1
IC50 [5]: 95.1 µM (active)

O=C(N/N=C/c1cn(-c2ccccc2)nc1-c1cccs1)c1ccccc1F
CC50 [4]: 25.6 µM (active) | IC50 (H9c2): > 79 µM (inactive)

CN(CC(=O)Nc1ccccc1Br)C(=O)CCc1nc(O)c2ccccc2n1
IC50 (H9c2): 12.7 µM (active)

CN(C)CCNC(C(=O)Nc1cccc(C(F)(F)F)c1)c1ccccc1 (centres undefined)
IC50 [5]: 76.5 µM (active)

Cn1c(C(=O)Nc2ccc3c(c2)OCCO3)cc2c(=O)n(C)c3ccccc3c21
IC50 (H9c2): > 79 µM (inactive)

COc1ccc([C@@]23Oc4cc(OC)cc(OC)c4[C@]2(O)[C@H](O)[C@H](C(=O)N(C)C)[C@H]3c2ccccc2)cc1 [ROCAGLAMIDE]
AC50 [6]: < 0.26 µM (active) | AC50 [7]: 0.889 µM (active)

COc1ccccc1CNc1ncc(-c2ccccc2)n1C
IC50 [5]: 49.5 µM (active)

CC(C)c1cc(C(N)=O)c(NC(=O)c2cccc(COc3ccc(Br)cc3)c2)s1
EC50 [2]: 41.9 µM (active) | EC50 [8]: > 300 µM (not active) | EC50 [3]: 11.3 µM (active) | EC50 [9]: > 300 µM (not active) | EC50 [10]: > 30 µM (not active) | EC50 (H4): 0.366 µM (active) | EC50 [11]: 1.87 µM (active)

CCCS(=O)(=O)N1CCN(C2Cc3ccccc3C2)CC1
IC50 [5]: 180 µM (active)

COc1ccc(-c2cc(C(=O)N3CCN(c4ccccc4)CC3)c3ccccc3n2)cc1OC
IC50 (H9c2): 63.6 µM (inactive)

COc1ccc(CCNC(=O)c2cc3c(C)nccc3nc2O)cc1OC
IC50 (H9c2): > 79 µM (inactive)

O=C(CCc1nc(O)c2ccccc2n1)NNC(=O)c1ccc(Cl)cc1
IC50 (H9c2): > 79 µM (inactive)

O=C(COc1ccc2ccccc2c1)N1CCN(Cc2ccncc2)CC1
IC50 [5]: 62.2 µM (active)

C[C@@H]1CCCCO[C@@H](CN(C)Cc2ccc(C(F)(F)F)cc2)[C@H](C)CN([C@H](C)CO)C(=O)c2cc(NC(=O)Cc3ccccc3)ccc2O1
AC50 (Paired box protein Pax-8): 4.62 µM (active)

COc1ccc(OCC(=O)N/N=C/c2cccc3cccnc23)cc1
IC50 (H9c2): > 79 µM (inactive)

COc1cc(/C=N/Nc2cc(C)nc(NS(=O)(=O)c3ccccc3)n2)ccc1O
IC50 [5]: 37.8 µM (active)

COc1ccc(C(=O)CCS(=O)(=O)c2ccc(C)cc2)cc1OC
AC50 (Paired box protein Pax-8): 9.82 µM (active)

COc1cc(C)cc2oc(=O)c(CC(=O)N3CCN(C(=O)C4COc5ccccc5O4)CC3)c(C)c12 (centres undefined)
IC50 (H9c2): > 79 µM (inactive)

COc1cccc(C2c3c(oc4ccccc4c3=O)C(=O)N2Cc2ccco2)c1 (centres undefined)
EC50 [2]: 55.4 µM (active) | EC50 [8]: 150 µM (active) | EC50 [3]: 1.7 µM (active) | EC50 [9]: 36.3 µM (active) | EC50 (H4): 68 µM (active)

Oc1ccc(/C=N/NC(=S)NCc2ccco2)cc1
IC50 [5]: 35.3 µM (active)

COc1cccc(C(=O)Nc2nnc(-c3ccc(Cl)cc3)o2)c1
IC50 (H9c2): > 79 µM (inactive)

O=C(c1cccs1)N1CCN(Cc2ccncc2)CC1
IC50 [5]: 88.5 µM (active)

Cc1ccc(-c2nnc(O)c3ccccc23)cc1S(=O)(=O)NCCN1CCOCC1
IC50 (H9c2): 14.2 µM (active)

CCN(CC)c1ccc(NC(=O)COC(=O)CCc2cc(OC)c(OC)c(OC)c2)cc1
IC50 [5]: 81.1 µM (active)

COc1cc(-c2cc(C(=O)O)c3c(OC)c(OC)c(OC)cc3n2)ccc1O
IC50 [5]: 126 µM (active)

CCN(CC)c1ccc(/C=N/Nc2nc(C)cc(C)n2)c(O)c1
IC50 [5]: 62.8 µM (active) | AC50 (INS1): 2.84 µM (active)

CCOC(=O)COc1cc(OCC(=O)OCC)c2c3c(c(=O)oc2c1)CCCC3
IC50 (H9c2): 10.5 µM (active)

Source: ChEMBL document CHEMBL1201862, “PubChem BioAssay data set” (2004)
